# Assay results as given in US20250092360A1, “METHODS AND COMPOSITIONS FOR GENERATING SOMATOSTATIN+ INTERNEURONS FROM HUMAN FOREBRAIN NEURAL PROGENITOR CELLS” (Trailhead Biosystems Inc., priority 2023, published 2025).
# Entries after “also recorded” stand apart in the source; their conditions may differ.
# Key:
# [1] = tested on: human pluripotent stem cells; assay: HD-DoE stage 1, additional experiment: FEZF2 expression; assay type: cell-based; conditions: for impact on expression of FEZF2: dynamic profile, in words; for factor contribution, expression of FEZF2: positive impact, additional stage 1 experiment optimized for FEZF2
# Procedure, shortened: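 Human pluripotent stem cells were exposed for three days to DoE-designed combinations of effectors in basal medium, including LDN193189, PD173074, BLU9931, purmorphamine, CHIR99021, XAV939, tofacitinib and GO6983 among others. Gene expression was measured by qPCR. Values were normalized and modelled by partial least squares regression against the effector design.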
# [2] = tested on: medial ganglionic eminence (MGE)-derived neural progenitors; assay: HD-DoE stage 4, 12-factor experiment: SOX6 expression; assay type: cell-based, human; conditions: for impact on expression of SOX6: dynamic profile, in words; for factor contribution, expression of SOX6: significant negative effect, model optimized for maximal SOX6
# Source text: These effectors are small chemical compounds or proteins. They are commonly used during the differentiation of stem cells to specific cell linage. The choice of the effectors was based on the current literature on forebrain neural induction and differentiation of neural progenitor cells to mature neurons.
# To evaluate the effectors on SST differentiation, experiments with 8 or 12 factors were designed to assess the responses of cells to 48 or more combinations of effectors in a range of concentrations. To analyze the models, we focused on expression of genes involved in development and patterning of the forebrain interneurons maturation including LHX6 (Liodis et al. (2007) J. Neurosci. 27:3078-3089; Yuan et al. (2018) Elife 7: e37382), SOX6 (Azim et al. (2009) Nature Neurosci. 12:1238-1247; Batista-Brito et al. (2009) Neuron 63:466-481), DLX5 (de Lombares et al. (2019) Aging (Albany NY) 11:6638; Wang et al. (2010) J. Neurosci. 30:5334-5345) and ASCL1 (Barretto et al. (2020) J. Neurosci. Meth. 334:108548; Shi et al. (2016) J. Biol. Chem. 291:13560-13570). At later stages we focused on interneuron maturation genes including somatostatin and absence of Parvalbumin (Horn and Nicoll (2018) Proc. Natl. Acad. Sci. 115:589-594). The impacts of each effector on gene expression level are defined by a parameter called factor contribution that is calculated for each effector during the modeling.
# To identify the recipe for differentiation at stage 4, at least 48 different combinations of effectors were robotically prepared by the Design-of-Experiments compression through D-optimality. The effector combinations were prepared in a basal media and were subsequently added to the cells, which were then allowed to differentiate. Three days later, RNA extraction was performed, and gene expression levels were examined using quantitative PCR analysis. The data was normalized and modeled using partial least squares regression analysis to the effector design, resulting in the generation of gene-specific models, which after model tuning for maximal predictive power, provided explanation of the effectors ability to control the expression of individual genes, combinatorically, and individually. Solutions within the tested space could then be explored to address desirability.
# IGF-1 activates the IGF-1 pathway, promotes neuron axonal growth, and establishes the synapse of interneurons. GDNF is the […] and can activate the GDNF pathway. MK2206 is an AKT inhibitor and can inhibit cell proliferation and promote neuronal maturation. PD173074 and BLU-554 are FGFR inhibitors. The FGF pathway is required for the maintenance of neural progenitor cells. Inhibition of the FGFR pathway promotes neural maturation. GSI-XX is a notch pathway inhibitor. Notch pathway inhibits neural progenitor cell differentiation. Inhibition of the Notch pathway promotes neural differentiation.
# To find the set of factors that have the potential to optimize SOX6 in this experiment, a new assessment was done through dynamic profile analysis with focus on maximal expression of SOX6.
# [3] = tested on: stage 2 neural stem cells; assay: HD-DoE stage 3 experiment: ASCL1, LHX6, DLX1 expression; assay type: cell-based, human
# Protocol: To further guide the cells to medial ganglionic eminence progenitor fate, an additional HD-DoE experiment was performed for 3 days on cells that were treated with stage 1 and stage 2 media for total of 6 days prior to start of the experiment. This experiment included 13 effectors, LDN193189, A8301, GNF5837, AZD3147, GSI-XX, Takinib, PD0325901, PD173074, BLU9931, IGF-1, MHY1485, Purmorphamine and Prostratin. In this model, we focused on maximum expression of genes expressed in neuronal progenitor cells in medial ganglionic eminence (MGE) region including ASCL1, LHX6 and DLX1 (Silberberg et al. (2016) Neuron 92:59-74). When the model was optimized for maximum expression of ASCL1 at 1700, A8301, GSI-XX, Purmorphamine and Takinib, which is an inhibitor of TAK1 pathway, had the highest factor contributions, 18.1, 14.1, 12.7 and 10.1 respectively. […] MHY 1485 also had positive contribution however the factor was below 2 (FIG. 9).
# Therefore, six effectors including A8301, GSI-XX, Takinib, GNF5837, IGF-1 and Purmorphamine were finalized as ingredients of stage 3 differentiation media. A representative recipe for Stage 3 differentiation is summarized below in Table 3.
# [4] = tested on: stage 2 neural stem cells; assay: Factor criticality analysis, stage 3 recipe; assay type: cell-based, human; conditions: other five stage 3 factors present
# Protocol: To assess the impact of the elimination of each validated factor, dynamic profile analysis was used and compared the expression level of genes of interest in absence of each finalized factor while others are present.
# In the stage 3 recipe, each of the six finalized factors were removed while the other five factors remained present and the expression levels of ASCL1, DLX1 and LHX6 were assessed compared to the presence of all six factors. […] As expected, in the absence of IGF-1, the value of DLX1 increases to 410, however, ASCL1 and LHX6 decreased to 1390 and 220, respectively.
compound,measurement,setting,value
c1ccc2c(-c3cnn4cc(-c5ccc(N6CCNCC6)cc5)cnc34)ccnc2c1 [LDN193189],impact on expression of FEZF2,[1],positive impact
same,"factor contribution, expression of FEZF2",[1],18
same,impact on expression of SOX6,[2],negative effect
same,"factor contribution, expression of SOX6",[2],9.8
O=C(NOC[C@H](O)CO)c1ccc(F)c(F)c1Nc1ccc(I)cc1F [PD0325901],impact on expression of FEZF2,[1],positive impact
same,"factor contribution, expression of FEZF2",[1],15
same,impact on expression of SOX6,[2],negative effect
same,"factor contribution, expression of SOX6",[2],5.1
c1ccc2c(Oc3nc(Nc4ccc(N5CCOCC5)cc4)c4ncn(C5CCCCC5)c4n3)cccc2c1 [Purmorphamine],impact on expression of FEZF2,[1],positive impact
same,"factor contribution, expression of FEZF2",[1],11
same,impact on expression of ASCL1,"[3]; dynamic profile, in words",positive trends; also recorded: Positive impact
same,impact on expression of DLX1,"[3]; dynamic profile, in words",did not have a significant negative impact
same,impact on expression of LHX6,"[3]; dynamic profile, in words",positive trends; also recorded: Positive impact
same,"factor contribution, expression of ASCL1","[3]; positive, model optimized for maximum ASCL1 at 1700",12.7
same,expression level of DLX1 when the factor is removed,[4]; 220 with all six factors,stayed the same
same,expression level of LHX6 when the factor is removed,[4]; 240 with all six factors,190
same,expression level of ASCL1 when the factor is removed,[4]; 1650 with all six factors,1200
